# Source: US20100189802A1, “Method for treatment of vascular hyperpermeability” (Scott and White Memorial Hospital and Scott, Sherwood, and …, priority 2007, published 2010)
# B1: Angiopoietin-1: an endothelial cell growth factor (protein, UniProt Q15389 16-498, looked up)
# Angiopoietin-1: HIGCSNQRRSPENSGRRYNRIQHGQCAYTFILPEHDGNCRESTTDQYNTNALQRDAPHVEPDFSSQKLQHLEHVMENYTQWLQKLENYIVENMKSEMAQIQQNAVQNHTATMLEIGTSLLSQTAEQTRKLTDVETQVLNQTSRLEIQLLENSLSTYKLEKQLLQQTNEILKIHEKNSLLEHKILEMEGKHKEELDTLKEEKENLQGLVTRQTYIIQELEKQLNRATTNNSVLQKQQLELMDTVHNLVNLCTKEGVLLKGGKREEEKPFRDCADVYQAGFNKSGIYTIYINNMPEPKKVFCNMDVNGGGWTVIQHREDGSLDFQRGWKEYKMGFGNPSGEYWLGNEFIFAITSQRQYMLRIELMDWEGNRAYSQYDRFHIGNEKQNYRLYLKGHTGTAGKQSSLILHGADFSTKDADNDNCMCKCALMLTGGWWFDACGPSNLNGMFYTAGQNHGKLNGIKWHYFKGPSYSLRSTTMMIRPLDF
# How the values were obtained:
# Sprague-Dawley rats = assay: Hemorrhagic shock-induced vascular hyperpermeability: FITC-albumin flux in mesenteric postcapillary venules by intravital microscopy; assay type: in vivo, rat
# Excerpt: For example, in an embodiment of the invention disclosed herein, Sprague-Dawley rats were anesthetized with urethane. Hemorrhagic shock was induced in the anesthetized rats by withdrawing blood to reduce the mean arterial pressure to 40 mm Hg for one hour. The rats were then resuscitated to 90 mmHg by administration of the shed blood and normal saline. Albumin labeled with fluorescein isothiocyanate (FITC) was given intravenously during the period in which shock was present. The mesenteric postcapillary venules in a transilluminated segment of small intestine were examined to quantitate changes in albumin flux using intravital microscopy.
# endothelial cells = details: traumatized animals, hemorrhagic shock; Childs et al. 2008; cited from earlier work
Molecule,vascular hyperpermeability induced by hemorrhagic shock-induced apoptosis (Sprague-Dawley rats; alpha-lipoic acid administered to traumatized animals),"vascular hyperpermeability (Sprague-Dawley rats; alpha-lipoic acid, about 100 mg/kg, before the onset of hemorrhagic shock)","vascular hyperpermeability (Sprague-Dawley rats; alpha-lipoic acid, about 100 mg/kg, within 60 minutes after the development of hemorrhagic shock)",vascular hyperpermeability and apoptosis (endothelial cells),"vascular hyperpermeability (Sprague-Dawley rats; angiopoietin-1 intravenously, 200 ng/ml, traumatized animals)"
"O=C(O)CCCCC1CCSS1 (stereo not drawn) [Alpha-lipoic acid, alpha-lipoic acid]",attenuated the amount of vascular hyperpermeability,effective in reducing the amount of vascular hyperpermeability,effective in reducing the amount of vascular hyperpermeability,,
B1,,,,potent inhibitor of vascular hyperpermeability and apoptosis,attenuated the amount of vascular hyperpermeability
